Compound	chromatographic logP (physchem; logP)	further results
CCOP(=O)(OCC)c1cnn2c(NC(C)C(C)(C)C)c(-c3ccc(F)cc3Cl)c(Cl)nc12 (stereo not drawn) [Example XXIII, diethyl {5-chloro-6-(2-chloro-4-fluorophenyl)-7-[(1,2,2-trimethylpropyl)-amino]pyrazolo[1,5-a]pyrimidin-3-yl}phosphonate]		chromatographic logP (logP (HPLC)): 4.48
CCOP(=O)(O)c1cnn2c(NC(C)C(C)(C)C)c(-c3ccc(F)cc3Cl)c(Cl)nc12 (stereo not drawn) [Example XXIV, ethyl hydrogen {5-chloro-6-(2-chloro-4-fluorophenyl)-7-[(1,2,2-trimethylpropyl)-amino]pyrazolo[1,5-a]pyrimidin-3-yl}phosphonate]		chromatographic logP (logP (HPLC)): 3.01
COc1nc2c(C(=O)O)cnn2c(NC(C)C(C)C)c1-c1sccc1C (stereo not drawn) [Example XXV, 7-(1,2-dimethylpropylamino)-5-methoxy-6-(3-methylthiophen-2-yl)pyrazolo[1,5-α]pyrimidine-3-carboxylic acid]		chromatographic logP (physchem; logPs): 3.65
Cc1ccsc1-c1c(Cl)nc2c(-c3ncco3)cnn2c1NC(C)C(C)C (stereo not drawn) [Example XXVII, [5-Chloro-6-(3-methylthiophen-2-yl)-3-oxazol-2-ylpyrazolo[1,5-α]pyrimidin-7-yl](1,2-dimethyl-propyl)amine]		chromatographic logP (physchem; logPs): 4.3
C[C@H](Nc1c(-c2ccc(C#N)cc2Cl)c(Cl)nc2c(C(=O)O)cnn12)C(F)(F)F (single isomer, unassigned) [Example XXII]	2.63	
CC(C)C(C)Nc1c(-c2ccc(F)cc2Cl)c(Cl)nc2c(-c3ccccn3)cnn12 (stereo not drawn) [compound 538]	3.54	
CCC(C)c1c(Cl)nc2c(C(=O)OC)cnn2c1N[C@H](C)C(C)C (stereo partly drawn) [methyl 5-chloro-6-(sec-butyl)-7-[(R)-3-methyl-2-butylamino][1,5-a]pyrimidine-3-carboxylate]	4.49	
C[C@@H](Nc1c(-c2ccc(F)cc2Cl)c(Cl)nc2c(C(=O)NO)cnn12)C(C)(C)C	3.51	
C[C@@H](Nc1c(-c2ccc(F)cc2Cl)c(Cl)nc2c(-c3nsc(=O)o3)cnn12)C(C)(C)C [Example VI]	5.38	

From patent publication US7629294B2, “Pyrazolopyrimidines” (Bayer CropScience LP, priority 2004, dated 2009)
